Reference: the Deep4Chem optical property database

Assay: solvent given as SMILES

For `COc1ccc(-c2cc3c(o2)=CC2=C(C(F)(F)F)c4cc5oc(-c6ccc(OC)cc6)cc5n4[B-](F)(F)[N+]=32)cc1`, the absorption maximum (in ClC(Cl)Cl) was 723 nm.
For `CN(C)CCN(Cc1c2ccccc2cc2ccccc12)c1ccc([N+](=O)[O-])cc1[N+](=O)[O-]`, the absorption maximum (in C1CCCCC1) was 372 nm, the absorption maximum (in C1CCOC1) was 394 nm and the absorption maximum (in CC#N) was 392 nm. For the same compound, the absorption maximum (in CC(C)=O) was 392 nm, the absorption maximum (in CCO) was 394 nm and the absorption maximum (in CN(C)C=O) was 395 nm. It also gave an absorption maximum (in CO) of 391 nm, an absorption maximum (in CS(C)=O) of 397 nm and an absorption maximum (in ClC(Cl)Cl) of 393 nm. The absorption maximum (in ClCCl) was 394 nm.
Compound `COc1ccc(C2CC(c3ccc(O)cc3)=NN2c2ccc(S(N)(=O)=O)cc2)cc1` (configuration not stated) has an absorption maximum (in C1CCOC1) of 359 nm, an absorption maximum (in C1COCCO1) of 360 nm and an absorption maximum (in CC#N) of 358 nm. It also gave an absorption maximum (in CC(C)O) of 358 nm, an absorption maximum (in CCO) of 358 nm and an absorption maximum (in CCOC(C)=O) of 358 nm. For the same compound, the absorption maximum (in CN(C)C=O) was 361 nm, the absorption maximum (in CO) was 357 nm and the absorption maximum (in CS(C)=O) was 364 nm. It also gave an absorption maximum (in O) of 360 nm.
Work on `c1cc2ccc1CCCc1cc3c(cc1CCCc1ccc(c4nsnc14)CCC3)CCC2` yielded an absorption maximum (in C1CCCCC1) of 402 nm, an absorption maximum (in CC#N) of 403 nm and an absorption maximum (in ClC(Cl)Cl) of 402 nm.
Work on `O=C(O)CCCCCn1c2ccccc2c(=O)c2cc(Br)ccc21` yielded an absorption maximum (in O) of 439 nm.
Work on `N#C[Se]CCCCCOc1ccc2ccc(=O)oc2c1` yielded an absorption maximum (in C1CCCCC1) of 321 nm, an absorption maximum (in C1CCOC1) of 322 nm and an absorption maximum (in C1COCCO1) of 319 nm. The absorption maximum (in CC#N) was 321 nm, the absorption maximum (in CCCCCCC) was 319 nm and the absorption maximum (in CCO) was 323 nm. For the same compound, the absorption maximum (in CN(C)C=O) was 322 nm, the absorption maximum (in CO) was 322 nm and the absorption maximum (in O) was 324 nm. It also gave an absorption maximum (in OCCO) of 326 nm.
Work on `CCc1ccc(-n2c3ccccc3c3cc4c(cc32)c2ccccc2n4-c2ccc(CC)cc2)cc1` yielded an absorption maximum (in ClC(Cl)Cl) of 409 nm.
For `CCCCC(CC)COc1cc(OCC(CC)CCCC)c2c#cc3ccc4oc5ccc(c#cc6cc(c#cc7ccc8oc9ccc(c#cc1c2)cc9c8c7)c(C(CCCC)OCCC)cc6C(CCCC)OCCC)cc5c4c3` (configuration not stated), the absorption maximum (in ClCCl) was 328 nm.
`Cc1ccc2c(c1)c(C#N)c(C#N)c1cc(C)ccc12` gave an absorption maximum (in ClC(Cl)Cl) of 343 nm.
In the case of `C[Si]1(C)O[Si](C)(C)c2cc3nc4ccc(Cl)cc4c(-c4ccccc4)c3cc2[Si](C)(C)O1`, the absorption maximum (in ClCCl) is reported as 373 nm.
In the case of `C(=C\c1ccnc2ccccc12)/c1ccc(/C=C/c2ccnc3ccccc23)cc1`, the absorption maximum (in C1CCCCC1) is reported as 364 nm, the absorption maximum (in C1COCCO1) is reported as 370 nm and the absorption maximum (in CC#N) is reported as 370 nm. It also gave an absorption maximum (in CC(C)=O) of 371 nm, an absorption maximum (in CC(C)O) of 374 nm and an absorption maximum (in CCCO) of 374 nm. It also gave an absorption maximum (in CCO) of 374 nm, an absorption maximum (in CN(C)C=O) of 378 nm and an absorption maximum (in CO) of 374 nm. The absorption maximum (in CS(C)=O) was 382 nm, the absorption maximum (in ClC(Cl)Cl) was 370 nm and the absorption maximum (in ClCCl) was 370 nm. It also gave an absorption maximum (in OCCO) of 382 nm.
`C=CCN(CC=C)c1ccc(-c2cc(-c3ccc(N(CC=C)CC=C)cc3)cc(-c3ccc(N(CC=C)CC=C)cc3)c2)cc1` showed an absorption maximum (in ClCCl) of 315.85 nm.
`N#C/C(=C\c1cn(-c2ccccc2)nc1-c1ccc([N+](=O)[O-])cc1)c1nc2ccccc2s1` showed an absorption maximum (in C1CCOC1) of 378 nm, an absorption maximum (in C1COCCO1) of 379 nm and an absorption maximum (in CCOC(C)=O) of 375 nm. For the same compound, the absorption maximum (in CN(C)C=O) was 376 nm, the absorption maximum (in CS(C)=O) was 375 nm and the absorption maximum (in Cc1ccccc1) was 383 nm. The absorption maximum (in ClC(Cl)Cl) was 382 nm.
Work on `Cc1ccc(C2=C3C=CC(Cl)=[N+]3[B-](F)(F)n3c(Cl)ccc32)cc1` yielded an absorption maximum (in C1CCCCC1) of 514 nm, an absorption maximum (in C1CCOC1) of 511 nm and an absorption maximum (in CC#N) of 508 nm. For the same compound, the absorption maximum (in CCOC(C)=O) was 509 nm, the absorption maximum (in CO) was 508 nm and the absorption maximum (in Cc1ccccc1) was 516 nm. It also gave an absorption maximum (in ClC(Cl)Cl) of 515 nm.
Compound `CC1(C)c2ccccc2N(c2ccc3c(c2)c2cc(N4c5ccccc5C(C)(C)c5ccccc54)ccc2c2nc(C#N)c(C#N)nc32)c2ccccc21` has an absorption maximum (in Cc1ccccc1) of 464 nm.
`N=C(N)N` showed an absorption maximum (in O) of 265 nm.
`CCCC1=Cc2nc1ccc1[nH]c(c3nc(ccc4[nH]c2cc4CCC)C(CCC)=C3)c(CN(C)C)c1CCC` gave an absorption maximum (in Cc1ccccc1) of 643 nm.
`C(=C\c1cc[n+]2ccc(/C=C/c3cc[nH]c3)cc2c1)/c1cc[nH]c1` showed an absorption maximum (in CO) of 457 nm.
For `O=Cc1ccc(C#CC(C#Cc2ccc(C=O)o2)=Cc2ccc(C=C(C#Cc3ccc(C=O)o3)C#Cc3ccc(C=O)o3)s2)o1`, the absorption maximum (in ClC(Cl)Cl) was 516 nm.
`Cc1cc(=O)cc(-c2ccc(-c3nc4ccccn4c3NC3CCCCC3)cc2)o1` showed an absorption maximum (in ClCCl) of 357 nm.
For `CCN(CC)c1ccc(/C=N/CC/N=C/c2ccc(N(CC)CC)cc2O)c(O)c1`, the absorption maximum (in CC#N) was 339 nm, the absorption maximum (in CN(C)C=O) was 353 nm and the absorption maximum (in ClCCl) was 344 nm.
In the case of `F[B-]1(F)n2c(Cl)c(Cl)c(Br)c2C(Oc2ccccc2)=C2C(Br)=C(Cl)C(Cl)=[N+]21`, the absorption maximum (in ClCCl) is reported as 532 nm.
